In US9944645B2, “Imidazotriazines and imidazopyrimidines as kinase inhibitors” (Incyte Holdings Corporation, priority 2006, dated 2018):

The molecules below were run against c-Met kinase (h-Met; histidine-tagged c-Met catalytic domain fusion protein) (Homo sapiens (Human), UniProt P08581) (assay: In Vitro c-Met Kinase Enzyme Assays). Settings: phosphorylation of poly Glu-Tyr, 5 μM ATP, 25 minutes at 30° C.
Type: biochemical
Protocol: Compounds were screened in vitro for their ability to inhibit c-Met kinase activity. […] Briefly, histidine-tagged c-Met catalytic domain fusion protein (Invitrogen, #PV3143) was used for the assay. […] The reaction lasted for 25 minutes at 30° C. After the reaction was completed, the contents of the plates was discarded. Plates were then washed with TBS-T (250 μL/well, 5×) and then blocked with TBS-T containing 1% BSA for 2 hours. The contents of the plates was discarded, and 100 μL (per well) of peroxidase-labeled anti-phospho-tyrosine antibody (Sigma, #A5964) diluted (1:60,000) in 1% BSA containing TBS-T were then added and incubated for 1 hour. Plates were washed with TBS-T ([…], 5×) and followed by the color reaction using 100 μL (1:1 mixture) of H2O2 and tetramethylbenzidine (R&D Systems, #DY999). The reaction was stopped in minutes with 100 μL of 2 N H2SO4. The optical density was measured immediately using a microplate reader at 450 nm with wavelength correction at 540 nm. IC50 values were calculated with the GraphPad Prism software. The linear range (i.e., the time period over which the rate remained equivalent to the initial rate) was determined for the kinase and IC50 determinations were performed within this range.

c-Met kinase (h-Met; histidine-tagged c-Met catalytic domain fusion protein), sequence (P08581 1078-1345): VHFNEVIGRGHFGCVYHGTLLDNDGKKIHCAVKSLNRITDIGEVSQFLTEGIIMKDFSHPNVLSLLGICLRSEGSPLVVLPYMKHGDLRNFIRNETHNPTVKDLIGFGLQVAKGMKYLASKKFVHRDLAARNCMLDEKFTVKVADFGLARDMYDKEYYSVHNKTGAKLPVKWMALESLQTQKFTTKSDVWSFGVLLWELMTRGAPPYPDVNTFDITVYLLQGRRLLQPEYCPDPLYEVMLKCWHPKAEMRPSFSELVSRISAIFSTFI

SMILES | IC50 [nM]
CC(C)(C)[C@H](NC(=O)c1ccc(-c2cnc3ncc(C4(c5ccc6ncccc6c5)CC4)n3c2)cc1F)C(=O)N1CCC1 [Example 198, N-[(1S)-1-(Azetidin-1-ylcarbonyl)-2,2-dimethylpropyl]-2-fluoro-4-[3-(1-quinolin-6-ylcyclopropyl)imidazo[1,2-a]pyrimidin-6-yl]benzamide] | < 500
O=C(NC1(CO)CCCC1)c1ccc(-c2cnc3ncc(Cc4ccc5ncccc5c4)n3n2)cc1F [Example 158, 2-Fluoro-N-[1-(hydroxymethyl)cyclopentyl]-4-[7-(quinolin-6-ylmethyl)imidazo[1,2-b][1,2,4]triazin-2-yl]benzamide] | < 500
CC(NC(=O)c1ccc(-c2cnc3ncc(Cc4ccc5ncccc5c4)n3n2)cc1F)c1ccncc1 (centres unmarked) [Example 156, 2-Fluoro-N-(1-pyridin-4-ylethyl)-4-[7-(quinolin-6-ylmethyl)imidazo[1,2-b][1,2,4]triazin-2-yl]benzamide] | < 500
COCC(C)NC(=O)c1ccc(-c2cnc3ncc(C4(c5ccc6ncccc6c5)CC4)n3c2)cc1F (centres unmarked) [Example 163, 2-Fluoro-N-(2-methoxy-1-methylethyl)-4-[3-(1-quinolin-6-ylcyclopropyl)imidazo[1,2-a]pyrimidin-6-yl]benzamide] | < 500
COc1ccc(Oc2cnc3ncc(-n4cc(C)cn4)cn23)cc1 [Example 15, 3-(4-Methoxyphenoxy)-6-(4-methyl-1H-pyrazol-1-yl)imidazo[1,2-a]pyrimidine] | < 500
C[C@H](NC(=O)c1ccc(-c2cnc3ncc(C4(c5ccc6ncccc6c5)CC4)n3c2)cn1)C(=O)N(C)C [Example 61, N-[(1S)-2-(Dimethylamino)-1-methyl-2-oxoethyl]-5-[3-(1-quinolin-6-ylcyclopropyl)imidazo[1,2-a]pyrimidin-6-yl]pyridine-2-carboxamide] | < 500
CNC(=O)c1cccc(-c2cnc3ncc(C4(c5ccc6ncccc6c5)CC4)n3c2)c1 [Example 49, N-Methyl-3-[3-(1-quinolin-6-ylcyclopropyl)imidazo[1,2-a]pyrimidin-6-yl]benzamide] | < 500
CN1Cc2cc(-c3cnc4ncc(C5(c6ccc7ncccc7c6)CC5)n4c3)ccc2C1=O [Example 186, 2-Methyl-5-[3-(1-quinolin-6-ylcyclopropyl)imidazo[1,2-a]pyrimidin-6-yl]isoindolin-1-one] | < 500
CNC(=O)[C@@H](NC(=O)c1ccc(-c2cnc3ncc(Cc4ccc5ncccc5c4)n3n2)cc1F)C(C)(C)C [Example 131, N-(1S)-2,2-Dimethyl-1-[(methylamino)carbonyl]propyl-2-fluoro-4-[7-(quinolin-6-ylmethyl)imidazo[1,2-b][1,2,4]triazin-2-yl]benzamide] | < 500
COCC1(NC(=O)c2ccc(-c3cnc4ncc(C5(c6ccc7ncccc7c6)CC5)n4n3)cc2)CCOCC1 [Example 118] | < 500
O=C(N[C@@H]1CCOC1)c1ccc(-c2cnc3ncc(C4(c5ccc6ncccc6c5)CC4)n3c2)cc1F [Example 168, 2-Fluoro-4-[3-(1-quinolin-6-ylcyclopropyl)imidazo[1,2-a]pyrimidin-6-yl]-N-[(3R)-tetrahydrofuran-3-yl]benzamide] | < 500
CN(C)C(=O)[C@@H](NC(=O)c1ccc(-c2cnc3ncc(C4(c5ccc6ncccc6c5)CC4)n3c2)cc1)C(C)(C)C [Example 44, N-(1S)-1-[(Dimethylamino)carbonyl]-2,2-dimethylpropyl-4-[3-(1-quinolin-6-ylcyclopropyl)imidazo[1,2-a]pyrimidin-6-yl]benzamide] | < 500
COCC1(NC(=O)c2ccc(-c3cnc4ncc(C5(c6ccc7ncccc7c6)CC5)n4n3)cc2)CC1 [Example 115, N-[1-(Methoxymethyl)cyclopropyl]-4-[7-(1-quinolin-6-ylcyclopropyl)imidazo[1,2-b][1,2,4]triazin-2-yl]benzamide] | < 500
O=C1CCCN1c1ccc(-c2cnc3ncc(C4(c5ccc6ncccc6c5)CC4)n3c2)cc1F [Example 81, 1-{2-Fluoro-4-[3-(1-quinolin-6-ylcyclopropyl)imidazo[1,2-a]pyrimidin-6-yl]phenyl}pyrrolidin-2-one] | < 2000
O=C1c2ccc(-c3cnc4ncc(C5(c6ccc7ncccc7c6)CC5)n4c3)cc2CN1Cc1ccccn1 [Example 185, 2-(Pyridin-2-ylmethyl)-5-[3-(1-quinolin-6-ylcyclopropyl)imidazo[1,2-a]pyrimidin-6-yl]isoindolin-1-one] | < 500
CC(=O)N1CC=C(c2ccc(-c3cnc4ncc(C5(c6ccc7ncccc7c6)CC5)n4n3)cc2)CC1 [Example 96, 6-(1-{2-[4-(1-Acetyl-1,2,3,6-tetrahydropyridin-4-yl)phenyl]imidazo[1,2-b][1,2,4]triazin-7-yl}cyclopropyl)quinoline] | < 500

SMILES | IC50 [nM]
O=C(NC1CCC1)c1ccc(-c2cnc3ncc(C4(c5ccc6ncccc6c5)CC4)n3c2)cc1 [Example 28, N-Cyclobutyl-4-[3-(1-quinolin-6-ylcyclopropyl)imidazo[1,2-a]pyrimidin-6-yl]benzamide] | < 500
O=C(Nc1nccs1)c1ccc(-c2cnc3ncc(C4(c5ccc6ncccc6c5)CC4)n3n2)cc1 [Example 119, 4-[7-(1-Quinolin-6-ylcyclopropyl)imidazo[1,2-b][1,2,4]triazin-2-yl]-N-1,3-thiazol-2-ylbenzamide] | < 500
COC[C@@H](NC(=O)c1ccc(-c2cnc3ncc(C4(c5ccc6ncccc6c5)CC4)n3c2)cc1F)C(C)C [Example 171, 2-Fluoro-N-[(1S)-1-(methoxymethyl)-2-methylpropyl]-4-[3-(1-quinolin-6-ylcyclopropyl)imidazo[1,2-a]pyrimidin-6-yl]benzamide] | < 500
CC(c1ccc2ncccc2c1)c1cnc2ncc(-c3ccc(C(=O)N[C@H]4CC[C@H](O)CC4)c(F)c3)nn12 (stereo partly drawn) [Example 159, 2-Fluoro-N-(trans-4-hydroxycyclohexyl)-4-[7-(1-quinolin-6-ylethyl)imidazo[1,2-b][1,2,4]triazin-2-yl]benzamide] | < 500
O=C(NCc1cccnc1)c1ccc(-c2cnc3ncc(Cc4ccc5ncccc5c4)n3n2)cc1F [Example 152, 2-Fluoro-N-(pyridin-3-ylmethyl)-4-[7-(quinolin-6-ylmethyl)imidazo[1,2-b][1,2,4]triazin-2-yl]benzamide] | < 500
O=C(NC1CCC1)c1ccc(-c2cnc3ncc(C4(c5ccc6ncccc6c5)CC4)n3n2)cc1 [Example 108, N-Cyclobutyl-4-[7-(1-quinolin-6-ylcyclopropyl)imidazo[1,2-b][1,2,4]triazin-2-yl]benzamide] | < 500
COCC1(NC(=O)c2ccc(-c3cnc4ncc(C5(c6ccc7ncccc7c6)CC5)n4n3)cc2F)CC1 [Example 103, 2-Fluoro-N-[1-(methoxymethyl)cyclopropyl]-4-[7-(1-quinolin-6-ylcyclopropyl)imidazo[1,2-b][1,2,4]triazin-2-yl]benzamide] | < 500
O=C1OCCN1c1ccc(-c2cnc3ncc(C4(c5ccc6ncccc6c5)CC4)n3c2)cc1F [Example 82, 3-{2-Fluoro-4-[3-(1-quinolin-6-ylcyclopropyl)imidazo[1,2-a]pyrimidin-6-yl]phenyl}-1,3-oxazolidin-2-one] | < 500
O=C(NC1CCOCC1)c1ccc(-c2cnc3ncc(C4(c5ccc6ncccc6c5)CC4)n3n2)cc1 [Example 113, 4-(7-(1-(Quinolin-6-yl)cyclopropyl)imidazo[1,2-b][1,2,4]triazin-2-yl)-N-(tetrahydro-2H-pyran-4-yl)benzamide] | < 500
Fc1cc(-c2cnc3ncc(C4(c5ccc6ncccc6c5)CC4)n3c2)ccc1Cn1cccn1 [Example 69, 6-(1-{6-[3-Fluoro-4-(1H-pyrazol-1-ylmethyl)phenyl]imidazo[1,2-a]pyrimidin-3-yl}cyclopropyl)quinoline] | < 500
CC(Oc1ccc(-c2cnc3ncc(C4(c5ccc6ncccc6c5)CC4)n3c2)cc1F)C(=O)N1CCCC1 (centres unmarked) [Example 21, 6-(1-{6-[3-Fluoro-4-(1-methyl-2-oxo-2-pyrrolidin-1-ylethoxy)phenyl]imidazo[1,2-a]pyrimidin-3-yl}cyclopropyl)quinoline] | < 500
O=C(c1ccc(-c2cnc3ncc(Cc4ccc5ncccc5c4)n3n2)cc1F)N1CC[C@@H](O)C1 [Example 126, (3R)-1-{2-Fluoro-4-[7-(quinolin-6-ylmethyl)imidazo[1,2-b][1,2,4]triazin-2-yl]benzoyl}pyrrolidin-3-ol] | < 500
O=C(NC1CCOC1)c1ccc(-c2cnc3ncc(C4(c5ccc6ncccc6c5)CC4)n3c2)cc1Cl (centres unmarked) [Example 176, 2-Chloro-4-[3-(1-quinolin-6-ylcyclopropyl)imidazo[1,2-a]pyrimidin-6-yl]-N-(tetrahydrofuran-3-yl)benzamide] | < 500
COC1CCN(C(=O)C(C)NC(=O)c2ccc(-c3cnc4ncc(C5(c6ccc7ncccc7c6)CC5)n4c3)cc2F)C1 (single isomer, unassigned) [Example 201] | < 500
N#CCn1cc(-c2cnc3ncc(C4(c5ccc6ncccc6c5)CC4)n3c2)cn1 [Example 93, {4-[3-(1-Quinolin-6-ylcyclopropyl)imidazo[1,2-a]pyrimidin-6-yl]-1H-pyrazol-1-yl}acetonitrile] | < 500
O=C(NC1(c2ccccn2)CC1)c1ccc(-c2cnc3ncc(C4(c5ccc6ncccc6c5)CC4)n3c2)cc1F [Example 166, 2-Fluoro-N-(1-pyridin-2-ylcyclopropyl)-4-[3-(1-quinolin-6-ylcyclopropyl)imidazo[1,2-a]pyrimidin-6-yl]benzamide] | < 500
